Assay results from patent US9452983B2, “Method for refining quinolinic acid” (CJ CHEILJEDANG CORP., priority 2013, dated 2016).

Assay: Evaluation of solubility of quinolinic acid with respect to pH
Assay type: physicochemical
Settings: room temperature (about 23° C.), pH controlled using 28%-ammonia water and 98% sulfuric acid, FIG. 1
Experimental: Evaluation of solubility of Quinolinic Acid with Respect to pH
Solubility of quinolinic acid in water at room temperature (about 23° C.) with respect to pH was evaluated using a pure quinolinic acid reagent (Sigma-Aldrich Prod. No. P63204), wherein the pH was controlled using a 28%-ammonia water and 98% sulfuric acid).

O=C(O)c1cccnc1C(=O)O [quinolinic acid]
Solubility of quinolinic acid in water with respect to pH: the lower the pH, the lower the solubility
